From US11554110B2, “Pemafibrate dosing regimens” (Kowa Company, Ltd., priority 2017, dated 2023)

Tests used:
Assay type in all cases: in vivo, healthy adult subjects
[1] = Drug interaction study of pemafibrate with clopidogrel (plasma pharmacokinetics of pemafibrate); conditions: for AUC(0-inf) / Cmax: human, plasma, po; for AUC0-inf ratio (concomitant use/single use) / Cmax ratio (concomitant use/single use): ratio of geometric means
Experimental: A study was conducted to investigate the effect of clopidogrel on the pharmacokinetics of pemafibrate in healthy adult subjects.
Subjects were orally administered on the following schedule. Pemafibrate administration on Days 1, 4, and 7 was carried out under fasting for at least 8 hours and maintained fasting for 4 hours after administration. • Day 1: Pemafibrate 0.4 mg alone • Day 4: A single dose of 0.4 mg of pemafibrate plus 391.5 mg of clopidogrel sulfate (equivalent to 300 mg of clopidogrel) • Day 5 to 6: Clopidogrel Sulfate 91.875 mg (equivalent to Clopidogrel 75 mg) alone • Day 7: A single dose of 0.4 mg of pemafibrate and 91.875 mg of clopidogrel sulfate (equivalent to 75 mg of clopidogrel) • Day 8 to 9: Clopidogrel Sulfate 91.875 mg (equivalent to Clopidogrel 75 mg) alone Measurement
Plasma concentration of pemafibrate was measured on blood samples from patients taken prior to and at 0.25, 0.5, 1, 1.5, 2, 3, 4, 6, 8, 10, 12, 14, 16, 24, 36, 48, 72 hours after administration of the drug on Days 1, 4, and 7.
For estimates of the Cmax of pemafibrate and the area under the concentration-time curves (AUC0-inf) up to infinity hours, the geometric mean values and the ratios of the geometric mean values of the single-dose concomitant administration (Day 4) to those for the single administration (Day 1) are shown in Table 4.
For the Cmax and AUC0-inf of pemafibrate, the geometric mean values and the ratios of the geometric mean values for concomitant administration after repeated administration of clopidogrel (day 7) to those for the single administration (day 1) are shown in Table 5.

[2] = Drug interaction study of pemafibrate with cyclosporine (plasma pharmacokinetics of pemafibrate); conditions: for AUC(0-inf) / Cmax: human, plasma, po, 0.4 mg, geometric mean, oral, fasting
Experimental: A study was conducted to investigate the effect of cyclosporine on the pharmacokinetics of pemafibrate in healthy adult subjects.
Subjects were orally administered on the following schedule. Drug administration was carried out under fasting for at least 8 hours, and fasting was maintained for 4 hours after administration. • Day 1: Pemafibrate 0.4 mg alone • Day 4: Combined single dose of 0.4 mg of pemafibrate and 600 mg of cyclosporine (Neoral® or its equivalent) [Measurement]
(§1) Plasma concentration of pemafibrate was measured on blood samples from patients taken prior to and at 0.25, 0.5, 1, 1.5, 2, 3, 4, 6, 8, 10, 12, 14, 16, 24, 36, 48, 72 hours after administration of the drug on Days 1 and 4.
For estimates of the Cmax of pemafibrate and the area under the concentration-time curves (AUC0-inf) up to infinity hours, the geometric mean values and the ratios of the geometric mean values for concomitant administration to those for the single administration are shown in Table 3.

[3] = Drug interaction study of pemafibrate with clarithromycin (plasma pharmacokinetics of pemafibrate); conditions: for AUC(0-inf) / Cmax: human, plasma, po, 0.4 mg, geometric mean
Experimental: A study was conducted to investigate the effect of clarithromycin on the pharmacokinetics of pemafibrate in healthy adult subjects.
20 healthy adult subjects
Subjects were orally administered on the following schedule. The administration of 0.4 mg of pemafibrate on Days 1 and 9 was carried out under fasting for at least 8 hours, and the fasting was maintained for 4 hours after the administration. • Day 1: Pemafibrate 0.4 mg alone • Day 4 to 8: Clarithromycin 500 mg twice per day (1000 mg/day) • Day 9: Pemafibrate 0.4 mg single dose and Clarithromycin 500 mg twice per day (1000 mg/day) • Day 10 to 11: Clarithromycin 500 mg twice per day (1000 mg/day) Measurement
Plasma concentration of pemafibrate was measured on blood samples from patients collected prior to and at 0.25, 0.5, 1, 1.5, 2, 3, 4, 6, 8, 10, 12, 14, 16, 24, 36, 48, 72 hours after administration of 0.4 mg of pemafibrate on Days 1 and 9.
For estimates of the Cmax of pemafibrate and the area under the concentration-time curves (AUC0-inf) up to infinity hours, the geometric mean values and the ratios of the geometric mean values for concomitant administration to those for the single administration are shown in Table 2.

[4] = Drug interaction study of pemafibrate with rifampicin (plasma pharmacokinetics of pemafibrate); conditions: for AUC(0-inf) / Cmax: human, plasma, po, 0.4 mg, geometric mean, oral, fasting
Experimental: A study was conducted to investigate the effect of rifampicin on the pharmacokinetics of pemafibrate in healthy adult subjects.
Subjects were orally administered on the following schedule. The administration of 0.4 mg of pemafibrate on Days 1 and 4 was carried out under fasting for at least 8 hours, and the fasting was maintained for 4 hours after the administration. • Day 1: Pemafibrate 0.4 mg alone • Day 4: A single dose of 0.4 mg of pemafibrate plus 600 mg of rifampicin • Days 5-6: Rifampicin 600 mg alone [Measurement]
as §1
For estimates of the Cmax of pemafibrate and the area under the concentration-time curves (AUC0-inf) up to infinity hours, the geometric mean values and the ratios of the geometric mean values for concomitant administration to those for the single administration are shown in Table 1.

[5] = Day 4 (clopidogrel 300 mg single dose) vs Day 1
[6] = Day 7 (after repeated clopidogrel, 75 mg) vs Day 1
[7] = Day 1, pemafibrate 0.4 mg alone, read-out: AUC0-inf, single administration
[8] = Day 1, pemafibrate 0.4 mg alone, read-out: Cmax, single administration
[9] = ratio of geometric means, with cyclosporine 600 mg vs pemafibrate alone
[10] = ratio of geometric means, with clarithromycin 1000 mg/day vs pemafibrate alone
[11] = ratio of geometric means, with rifampicin 600 mg vs pemafibrate alone

- AUC0-inf, concomitant administration ([1]; geometric mean, Day 7, pemafibrate 0.4 mg plus clopidogrel sulfate 91.875 mg (equivalent to 75 mg of clopidogrel) after repeated administration of clopidogrel): 33.5611 ng·h/mL
- AUC(0-inf) ([1]; 0.4 mg, geometric mean, Day 1, pemafibrate 0.4 mg alone, oral, fasting, read-out: AUC0-inf, single administration): 16.1 ng·h/mL
- Cmax ([1]; 0.4 mg, geometric mean, Day 1, pemafibrate 0.4 mg alone, oral, fasting, read-out: Cmax, single administration): 4.77 ng/mL
- Cmax ([1]; 0.4 mg, geometric mean, Day 4, single dose pemafibrate 0.4 mg plus clopidogrel sulfate 391.5 mg (equivalent to 300 mg of clopidogrel), read-out: Cmax, concomitant administration): 7.08 ng/mL
- AUC(0-inf) ([1]; geometric mean, Day 4, single dose pemafibrate 0.4 mg plus clopidogrel sulfate 391.5 mg (equivalent to 300 mg of clopidogrel), read-out: AUC0-inf, concomitant administration): 38.1 ng·h/mL
- Cmax ([1]; geometric mean, Day 7, pemafibrate 0.4 mg plus clopidogrel sulfate 91.875 mg (equivalent to 75 mg of clopidogrel) after repeated administration of clopidogrel, read-out: Cmax, concomitant administration): 6.39 ng/mL
- AUC0-inf ratio (concomitant use/single use) [1, 5]: 2.3728
- Cmax ratio (concomitant use/single use) [1, 5]: 1.4855
- AUC0-inf ratio (concomitant use/single use) [1, 6]: 2.0876
- Cmax ratio (concomitant use/single use) [1, 6]: 1.3415
- AUC(0-inf) [2, 7]: 13.4 ng·h/mL
- Cmax [2, 8]: 4.59 ng/mL
- AUC(0-inf) ([2]; Day 4, combined single dose pemafibrate 0.4 mg and cyclosporine 600 mg, read-out: AUC0-inf, concomitant administration): 187 ng·h/mL
- Cmax ([2]; Day 4, combined single dose pemafibrate 0.4 mg and cyclosporine 600 mg, read-out: Cmax, concomitant administration): 41.2 ng/mL
- AUC0-inf ratio (concomitant use/single use) [2, 9]: 13.9947
- Cmax ratio (concomitant use/single use) [2, 9]: 8.9644
- AUC(0-inf) ([3]; Day 1, pemafibrate 0.4 mg alone, oral, fasting, read-out: AUC0-inf, single administration): 17 ng·h/mL
- Cmax ([3]; Day 1, pemafibrate 0.4 mg alone, oral, fasting, read-out: Cmax, single administration): 4.67 ng/mL
- AUC(0-inf) ([3]; Day 9, pemafibrate 0.4 mg single dose with clarithromycin 500 mg twice per day (given from Day 4), read-out: AUC0-inf, concomitant administration): 35.7 ng·h/mL
- Cmax ([3]; Day 9, pemafibrate 0.4 mg single dose with clarithromycin 500 mg twice per day (given from Day 4), read-out: Cmax, concomitant administration): 11.3 ng/mL
- AUC0-inf ratio (concomitant use/single use) [3, 10]: 2.0975
- Cmax ratio (concomitant use/single use) [3, 10]: 2.4246
- AUC(0-inf) [4, 7]: 20.1 ng·h/mL
- Cmax [4, 8]: 5.67 ng/mL
- AUC(0-inf) ([4]; Day 4, single dose pemafibrate 0.4 mg plus rifampicin 600 mg, read-out: AUC0-inf, concomitant administration): 219 ng·h/mL
- Cmax ([4]; Day 4, single dose pemafibrate 0.4 mg plus rifampicin 600 mg, read-out: Cmax, concomitant administration): 53.5 ng/mL
- AUC0-inf ratio (concomitant use/single use) [4, 11]: 10.9009
- Cmax ratio (concomitant use/single use) [4, 11]: 9.436
SMILES: CC[C@@H](Oc1cccc(CN(CCCOc2ccc(OC)cc2)c2nc3ccccc3o2)c1)C(=O)O [pemafibrate, (2R)-2-[3-({1,3-benzoxazol-2-yl[3-(4-methoxyphenoxy)propyl]amino}methyl)phenoxy]butanoic acid]
- plasma concentration of pemafibrate, concomitant vs alone ([1]; concomitant administration after repeated administration of clopidogrel (day 7) compared with pemafibrate alone (day 1)): increase in the plasma concentration of pemafibrate
- plasma concentration of pemafibrate, concomitant vs alone ([1]; single-dose concomitant administration with clopidogrel (Day 4) compared with pemafibrate alone (Day 1)): increase in the plasma concentration of pemafibrate
- plasma concentration of pemafibrate, concomitant vs alone ([2]; concomitant administration with cyclosporine compared with pemafibrate alone): increase in the plasma concentration of pemafibrate
- plasma concentration of pemafibrate, concomitant vs alone ([3]; concomitant administration with clarithromycin compared with pemafibrate alone): increase in the plasma concentration of pemafibrate
- plasma concentration of pemafibrate, concomitant vs alone ([4]; concomitant administration with rifampicin compared with pemafibrate alone): increase in the plasma concentration of pemafibrate
